These results are taken from patent US7538098B2, “19-nor-vitamin D analogs with 1,2 or 3,2 heterocyclic ring” (Wisconsin Alumni Research Foundation, priority 2006, dated 2009).

pEC50, pKi: −log10 of the molar value. Entries after “also recorded” stand apart in the source; their conditions may differ. A value given as a limit tells only on which side of the number the result lay.

By pKi is commonly meant the Ki on a negative log10 scale, so that one unit is a factor of ten. What is called pEC50 is the negative decadic logarithm of the EC50, by convention in mol/L.

The test system of test [1] is D-sufficient CD-1 mice. In words: Bone calcium mobilization, 2nd in vivo study (D-sufficient mice). The following applies: single intraperitoneal injection, two doses, 72 hours; FIG. 5. Here is the method: 6-7 week old female CD-1 mice were purchased from Harlan (Indianapolis, Ind.). The animals were group housed and fed a purified diet containing 0.47% calcium. (Suda et al 1970 J. Nutrition). After a 5-7 day acclimation period, the animals were assigned to treatment groups (n=5-6/group) and given a single dose of the designated analogues by intraperitoneal injection. Blood was collected for serum calcium concentration analyses immediately prior to dose administration and 72 hours following dose delivery. Serum calcium were analyzed as described above.
(§1) In vivo data were analyzed by one-way ANOVA followed by pairwise comparisons when significant overall differences were detected. Post-hoc analyses includes, Tukey's, Scheffe's, and Fisher's LSD tests. Only differences (p<0.05) that were present in two out of the three post-hoc tests were considered significant.

For test [2], the target named is T1, full-length recombinant rat vitamin D receptor (Rattus norvegicus, UniProt P13053).
T1 construct: Full-length recombinant rat receptor was expressed in E. coli BL21 (DE3) Codon Plus RIL cells; histidine tag (C); made in house; host or cells: E. coli BL21 (DE3) Codon Plus RIL
T1 sequence (P13053 1-423): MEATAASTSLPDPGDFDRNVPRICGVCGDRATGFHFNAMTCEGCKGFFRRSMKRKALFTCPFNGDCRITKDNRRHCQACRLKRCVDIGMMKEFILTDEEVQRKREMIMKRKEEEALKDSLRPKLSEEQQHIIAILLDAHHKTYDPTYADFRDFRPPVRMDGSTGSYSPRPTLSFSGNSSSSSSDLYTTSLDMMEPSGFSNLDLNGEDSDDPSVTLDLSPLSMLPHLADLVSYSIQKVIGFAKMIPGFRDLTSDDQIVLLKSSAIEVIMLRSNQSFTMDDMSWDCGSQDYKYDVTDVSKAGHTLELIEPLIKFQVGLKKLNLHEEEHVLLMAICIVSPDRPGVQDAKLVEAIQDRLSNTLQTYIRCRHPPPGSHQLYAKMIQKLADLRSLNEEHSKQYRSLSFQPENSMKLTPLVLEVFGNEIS
In words: Vitamin D receptor competitive binding with [3H]-1,25(OH)2D3. The settings on record: FIG. 1; for pKi: full-length recombinant rat VDR, read-out: Ki, competition with [3H]-1,25(OH)2D3 for binding to the vitamin D receptor. Here is the method:
Full-length recombinant rat receptor was expressed in E. coli BL21 (DE3) Codon Plus RIL cells and purified to homogeneity using two different column chromatography systems. The first system was a nickel affinity resin that utilizes the C-terminal histidine tag on this protein. The protein that was eluted from this resin was further purified using ion exchange chromatography (S-Sepharose
Fast Flow). Aliquots of the purified protein were quick frozen in liquid nitrogen and stored at −80° C. until use. For use in binding assays, the protein was diluted in TEDK50 (50 mM Tris, 1.5 mM EDTA, pH7.4, 5 mM DTT, 150 mM KCI) with 0.1% Chaps detergent. The receptor protein and ligand concentration was optimized such that no more than 20% of the added radiolabeled ligand was bound to the receptor.
Radiolabeled and unlabeled ligands were added to 100 mcl of the diluted protein at a final ethanol concentration of ≦10%, mixed and incubated overnight on ice to reach binding equilibrium. The following day, 100 mcl of hydroxylapatite slurry (50%) was added to each tube and mixed at 10-minute intervals for 30 minutes. The hydroxylapaptite was collected by centrifugation and then washed three times with Tris-EDTA buffer (50 mM Tris, 1.5 mM EDTA, pH 7.4) containing 0.5% Titron X-100. After the final wash, the pellets were transferred to scintillation vials containing 4 ml of Biosafe II scintillation cocktail, mixed and placed in a scintillation counter. Total binding was determined from the tubes containing only radiolabeled ligand.

Test [3] relates to 24-hydroxylase (24Ohase) gene promoter in ROS 17/2.8 (bone) cells. In words: In vitro transcription assay (luciferase reporter). Type of test: cell-based. The following applies: FIG. 3; for Transcriptional activity, result in words: 24-hydroxylase (CYP-24) promoter luciferase reporter; for pEC50: 24-hydroxylase promoter luciferase reporter, read-out: EC50, transcriptional activity in bone cells. Here is the method: Transcription activity was measured in ROS 17/2.8 (bone) cells that were stably transfected with a 24-hydroxylase (24Ohase) gene promoter upstream of a luciferase reporter gene (Arbour et al., 1998). Cells were given a range of doses. Sixteen hours after dosing the cells were harvested and luciferase activities were measured using a luminometer. RLU=relative luciferase units
(Reporter assays use an easily measured gene product as a stand-in for the process of interest.)

Test [4] deals with Human promyelocytic leukemia (HL60) cells. In words: HL-60 differentiation (nitro blue tetrazolium reduction). The following applies: FIG. 2; for pEC50: Homo sapiens, HL-60. The format is cell-based. Here is the method: The study drugs were dissolved in ethanol and the concentrations determined using UV spectrophotometry. Serial dilutions were prepared so that a range of drug concentrations could be tested without changing the final concentration of ethanol (≦0.2%) present in the cell cultures.
Human promyelocytic leukemia (HL60) cells were grown in RPMI-1640 medium containing 10% fetal bovine serum. The cells were incubated at 37° C. in the presence of 5% CO2.
HL60 cells were plated at 1.2×10^5 cells/ml. Eighteen hours after plating, cells in duplicate were treated with drug. Four days later, the cells were harvested and a nitro blue tetrazolium reduction assay was performed (Collins et al., 1979; J. Exp. Med. 149:969-974). The percentage of differentiated cells was determined by counting a total of 200 cells and recording the number that contained intracellular black-blue formazan deposits. Verification of differentiation to monocytic cells was determined by measuring phagocytic activity (data not shown).

Test [5] relates to D-sufficient CD-1 mice. In words: Bone calcium mobilization, 3rd in vivo study (routes of administration). The settings on record: FIG. 6.
Excerpt: 6-7 week old female CD-1 mice were purchased from Harlan (Indianapolis, Ind.). The animals were group housed and fed a purified diet containing 0.47% calcium. (Suda et al 1970 J. Nutrition). After a 5-7 day acclimation period, the animals were assigned to treatment groups (n=5/group) and given a single dose of the designated analogues by intraperitoneal injection or oral gavage. Blood was collected for serum calcium concentration analyses at various timepoints following dose delivery. Serum calcium was analyzed as described above.
as §1

The subject of test [6] is D-deficient CD-1 mice. In words: Bone calcium mobilization, 1st in vivo study (D-deficient mice). The following applies: for Bone calcium mobilization activity (serum calcium change), overall: single intraperitoneal injection, D-deficient CD-1 mice, FIG. 4. The method, then: Female, CD-1 mice (6 weeks old) were purchased from Harlan Sprague-Dawley. Upon arrival, the animals were placed in a room with filtered lighting and fed a purified, D-deficient diet (Suda et al 1970 J. Nutrition) for 17 weeks. […] Serum calcium was measured by diluting with 0.1% lanthum chloride and reading the absorbance using an atomic absorption spectrometer. The change in serum calcium from pre-dose values (baseline) is reported.
as §1
Calcium mobilization from bone in vitamin D-deficient animals.

For `C[C@H](CCCC(C)(C)O)[C@H]1CC[C@H]2/C(=C/C=C3/C[C@@H](O)C4=CCCO[C@@H]4C3)CCC[C@]12C` [REV-A], the “Serum calcium change in D-sufficient mice” value in test [1] is “no significant increase in serum calcium”. In test [2], the pKi was 7.52. Also, the “VDR binding activity relative to 1,25-(OH)2D3” value in test [2] (less active than 1,25-(OH)2D3) is on record as 3 orders of magnitude. Moreover, in test [3], the “Transcriptional activity, result in words” value was “weak transcriptional activity; also recorded: much less transcriptional activity than 1α,25-dihydroxyvitamin D3” and the pEC50 was 7.52. In addition, in test [4], the “HL-60 cell differentiation, result in words” value was “considerably less active than 1,25(OH)2D3” and the pEC50 is 7.00.
For the molecule `C[C@H](CCCC(C)(C)O)[C@H]1CC[C@H]2/C(=C/C=C3\C[C@@H](O)C4=CCCO[C@@H]4C3)CCC[C@]12C` [REV-B], in test [1], the “Serum calcium change in D-sufficient mice” value was “remarkable in vivo activity of REV-B to raise blood calcium levels”. Further, the “Onset of serum calcium increase compared to 1,25(OH)2D3” value in test [5] is “significant delay”. In test [5] (oral gavage vs. intraperitoneal injection), the “Serum calcium increase by route of administration” value was “Both routes of administration are effective at causing an increase in serum calcium; however, intraperitoneal injection is more effective than oral gavage”. In test [2], the “VDR binding, result in words” value is reported as “does not bind to the VDR; also recorded: little binding activity for VDR” and the negative-log Ki (pKi) is less than 5.00. In addition, in test [3], the “Transcriptional activity, result in words” value was “essentially no transcriptional activity; also recorded: lacks activity; also recorded: inactive”. In test [6] (D-deficient mice, analog doses exceeding thirty times that of the natural hormone, 48 hours), the “Calcemic response 48 hours after the dose” value is on record as “markedly more active”. Also, in test [6], the “Bone calcium mobilization activity (serum calcium change), overall” value is reported as “considerable bone calcium mobilization activity”. Also, in test [4], the “HL-60 cell differentiation, result in words” value is listed as “lacks activity in cellular differentiation; also recorded: considerably less active than 1,25(OH)2D3” and the pEC50 was 6.00.
In the case of `C=C1/C(=C\C=C2/CCC[C@]3(C)[C@@H]([C@H](C)CCCC(C)(C)O)CC[C@@H]23)C[C@@H](O)C[C@@H]1O` [1,25(OH)2D3, 1α,25-dihydroxyvitamin D3, reference compound], the results for the pEC50 in test [3] and in test [4] were 9.70 and 8.70, respectively. In addition, in test [6], the “Bone calcium mobilization activity (serum calcium change), overall” value is reported as “increased serum calcium levels”.
